Columns and labels:
Italian ryegrass [1] = assay: Test Example 4: herbicidal effect by soil treatment (Table 19, symbol K); format: in vivo, Italian ryegrass (Lolium multiflorum); conditions: amount of applied herbicide 320 g/ha
In short: (§1)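 Applied as a water-diluted emulsion, the compound was sprayed onto soil covering newly sown seeds. Evaluation came three weeks after application, in a greenhouse held at 25° C. to 30° C.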

wild oat [2] = assay: Test Example 5: herbicidal effect by foliage application, plastic box (Table 20, symbol I); format: in vivo, wild oat (Avena fatua); conditions: foliage application, 320 g/ha
In short: (§2)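 Sow seeds spot-wise in sterilized diluvial soil; cover with ~1.5 cm soil. Grow 14 days in greenhouse, 25° C. to 30° C. Spray foliage with emulsion diluted to predetermined amount. Rate effect after 3 weeks.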

blackgrass [3] = assay: Test Example 5: herbicidal effect by foliage application, plastic box (Table 20, symbol J); format: in vivo, blackgrass (Alopecurus myosuroides); conditions: foliage application, 320 g/ha
In short: as §2

barnyard grass [4] = assay: Test Example 5: herbicidal effect by foliage application, plastic box (Table 20, symbol H); format: in vivo, barnyard grass (Echinochloa crus-galli); conditions: foliage application, 320 g/ha
In short: as §2

false cleavers = assay: Test Example 5: herbicidal effect by foliage application, plastic box (Table 20, symbol Q); format: in vivo, false cleavers (Galium spurium); conditions: foliage application, 320 g/ha
In short: as §2

persian speedwell [5] = assay: Test Example 4: herbicidal effect by soil treatment (Table 19, symbol R); format: in vivo, Persian speedwell (Veronica persica); conditions: amount of applied herbicide 320 g/ha
In short: as §1

windgrass [6] = assay: Test Example 4: herbicidal effect by soil treatment (Table 19, symbol L); format: in vivo, windgrass (Apera spica-venti); conditions: amount of applied herbicide 320 g/ha
In short: as §1

wild oat [7] = assay: Test Example 4: herbicidal effect by soil treatment (Table 19, symbol I); format: in vivo, wild oat (Avena fatua); conditions: amount of applied herbicide 320 g/ha
In short: as §1

velvetleaf [8] = assay: Test Example 5: herbicidal effect by foliage application, plastic box (Table 20, symbol M); format: in vivo, velvetleaf (Abutilon theophrasti); conditions: foliage application, 320 g/ha
In short: as §2

windgrass [9] = assay: Test Example 5: herbicidal effect by foliage application, plastic box (Table 20, symbol L); format: in vivo, windgrass (Apera spica-venti); conditions: foliage application, 320 g/ha
In short: as §2

lambsquarters [10] = assay: Test Example 5: herbicidal effect by foliage application, plastic box (Table 20, symbol O); format: in vivo, lambsquarters (Chenopodium album); conditions: foliage application, 320 g/ha
In short: as §2

redroot pigweed [11] = assay: Test Example 4: herbicidal effect by soil treatment (Table 19, symbol N); format: in vivo, redroot pigweed (Amaranthus retroflexus); conditions: amount of applied herbicide 320 g/ha
In short: as §1

blackgrass [12] = assay: Test Example 4: herbicidal effect by soil treatment (Table 19, symbol J); format: in vivo, blackgrass (Alopecurus myosuroides); conditions: amount of applied herbicide 320 g/ha
In short: as §1

redroot pigweed [13] = assay: Test Example 5: herbicidal effect by foliage application, plastic box (Table 20, symbol N); format: in vivo, redroot pigweed (Amaranthus retroflexus); conditions: foliage application, 320 g/ha, evaluated three weeks after application
In short: as §2

Italian ryegrass [14] = assay: Test Example 5: herbicidal effect by foliage application, plastic box (Table 20, symbol K); format: in vivo, Italian ryegrass (Lolium multiflorum); conditions: foliage application, 320 g/ha
In short: as §2

velvetleaf [15] = assay: Test Example 4: herbicidal effect by soil treatment (Table 19, symbol M); format: in vivo, velvetleaf (Abutilon theophrasti); conditions: amount of applied herbicide 320 g/ha
In short: as §1

lambsquarters [16] = assay: Test Example 4: herbicidal effect by soil treatment (Table 19, symbol O); format: in vivo, lambsquarters (Chenopodium album); conditions: amount of applied herbicide 320 g/ha
In short: as §1

persian speedwell [17] = assay: Test Example 5: herbicidal effect by foliage application, plastic box (Table 20, symbol R); format: in vivo, Persian speedwell (Veronica persica); conditions: foliage application, 320 g/ha
In short: as §2

southern crabgrass [18] = assay: Test Example 5: herbicidal effect by foliage application, plastic box (Table 20, symbol F); format: in vivo, southern crabgrass (Digitaria ciliaris); conditions: foliage application, 320 g/ha
In short: as §2

southern crabgrass [19] = assay: Test Example 4: herbicidal effect by soil treatment (Table 19, symbol F); format: in vivo, southern crabgrass (Digitaria ciliaris); conditions: amount of applied herbicide 320 g/ha
In short: as §1

green foxtail [20] = assay: Test Example 5: herbicidal effect by foliage application, plastic box (Table 20, symbol G); format: in vivo, green foxtail (Setaria viridis); conditions: foliage application, 320 g/ha
In short: as §2

barnyard grass [21] = assay: Test Example 4: herbicidal effect by soil treatment (Table 19, symbol H); format: in vivo, barnyard grass (Echinochloa crus-galli); conditions: amount of applied herbicide 320 g/ha
In short: as §1

chickweed [22] = assay: Test Example 4: herbicidal effect by soil treatment (Table 19, symbol P); format: in vivo, common chickweed (Stellaria media); conditions: amount of applied herbicide 320 g/ha
In short: as §1

green foxtail [23] = assay: Test Example 4: herbicidal effect by soil treatment (Table 19, symbol G); format: in vivo, green foxtail (Setaria viridis); conditions: amount of applied herbicide 320 g/ha
In short: as §1

chickweed [24] = assay: Test Example 5: herbicidal effect by foliage application, plastic box (Table 20, symbol P); format: in vivo, common chickweed (Stellaria media); conditions: foliage application, 320 g/ha, evaluated three weeks after application
In short: as §2

rice flat sedge = assay: Test Example 3: herbicidal effect by foliage application, Wagner pot (Table 18, symbol E); format: in vivo, rice flat sedge (Cyperus iria); conditions: 320 g/ha
In short: (§3)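 Plants were sown in alluvial soil held under 0.1–0.5 cm standing water and grown 14 days in a greenhouse at 25–30 °C. An emulsifiable formulation, water-diluted to the set dose, was then sprayed onto the foliage, and effects were scored three weeks later using previously defined criteria.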

barnyard grass [25] = assay: Test Example 3: herbicidal effect by foliage application, Wagner pot (Table 18, symbol H); format: in vivo, barnyard grass (Echinochloa crus-galli); conditions: 320 g/ha
In short: as §3

Chinese sprangletop = assay: Test Example 3: herbicidal effect by foliage application, Wagner pot (Table 18, symbol D); format: in vivo, chinese sprangletop (Leptochloa chinensis); conditions: 320 g/ha
In short: as §3

[26] = evaluated three weeks after application

COc1cc(F)ccc1-c1sc2ccc(-c3ccoc3)cc2c1-c1c(O)c(C)nn(C)c1=O [2-170]
K: Italian ryegrass, herbicidal effect rating (Italian ryegrass [1]): 0 (Herbicidal rate of 5% or less (almost no effect))
herbicidal effect on I: wild oat (criteria 0-5) (wild oat [2]; [26]): 0 (Herbicidal rate of 5% or less (almost no effect))
herbicidal effect on J: blackgrass (criteria 0-5) (blackgrass [3]; [26]): 0 (Herbicidal rate of 5% or less (almost no effect))
herbicidal effect on H: barnyard grass (criteria 0-5) (barnyard grass [4]; [26]): 0 (Herbicidal rate of 5% or less (almost no effect))
herbicidal effect on Q: false cleavers (criteria 0-5) (false cleavers; [26]): 0 (Herbicidal rate of 5% or less (almost no effect))
R: persian speedwell, herbicidal effect rating (persian speedwell [5]): 0 (Herbicidal rate of 5% or less (almost no effect))
L: windgrass, herbicidal effect rating (windgrass [6]): 0 (Herbicidal rate of 5% or less (almost no effect))
I: wild oat, herbicidal effect rating (wild oat [7]): 0 (Herbicidal rate of 5% or less (almost no effect))
herbicidal effect on M: velvetleaf (criteria 0-5) (velvetleaf [8]; [26]): 3 (Herbicidal rate of 40% or more and less than 70%)
herbicidal effect on L: windgrass (criteria 0-5) (windgrass [9]; [26]): 0 (Herbicidal rate of 5% or less (almost no effect))
herbicidal effect on O: lambsquarters (criteria 0-5) (lambsquarters [10]; [26]): 3 (Herbicidal rate of 40% or more and less than 70%)
N: redroot pigweed, herbicidal effect rating (redroot pigweed [11]): 0 (Herbicidal rate of 5% or less (almost no effect))
J: blackgrass, herbicidal effect rating (blackgrass [12]): 0 (Herbicidal rate of 5% or less (almost no effect))
herbicidal effect on N: redroot pigweed (criteria 0-5) (redroot pigweed [13]): 3 (Herbicidal rate of 40% or more and less than 70%)
herbicidal effect on K: Italian ryegrass (criteria 0-5) (Italian ryegrass [14]; [26]): 0 (Herbicidal rate of 5% or less (almost no effect))
M: velvetleaf, herbicidal effect rating (velvetleaf [15]): 0 (Herbicidal rate of 5% or less (almost no effect))
O: lambsquarters, herbicidal effect rating (lambsquarters [16]): 2 (Herbicidal rate of 20% or more and less than 40%)
herbicidal effect on R: persian speedwell (criteria 0-5) (persian speedwell [17]; [26]): 1 (Herbicidal rate of 5% or more and less than 20%)
herbicidal effect on F: southern crabgrass (criteria 0-5) (southern crabgrass [18]; [26]): 1 (Herbicidal rate of 5% or more and less than 20%)
F: southern crabgrass, herbicidal effect rating (southern crabgrass [19]): 3 (Herbicidal rate of 40% or more and less than 70%)
herbicidal effect on G: green foxtail (criteria 0-5) (green foxtail [20]; [26]): 0 (Herbicidal rate of 5% or less (almost no effect))
H: barnyard grass, herbicidal effect rating (barnyard grass [21]): 0 (Herbicidal rate of 5% or less (almost no effect))
P: chickweed, herbicidal effect rating (chickweed [22]): 0 (Herbicidal rate of 5% or less (almost no effect))
G: green foxtail, herbicidal effect rating (green foxtail [23]): 0 (Herbicidal rate of 5% or less (almost no effect))
herbicidal effect on P: chickweed (criteria 0-5) (chickweed [24]): 5 (Herbicidal rate of 90% or more (almost completely withered))

CCOc1cc2sc(-c3ccccc3OC)c(-c3c(O)c(C)nn(C)c3=O)c2cc1F [5-065]
K: Italian ryegrass, herbicidal effect grade (Italian ryegrass [1]): 3 (Herbicidal rate of 40% or more and less than 70%)
herbicidal effect on wild oat (I) (wild oat [2]; three weeks after application): 4 (Herbicidal rate of 70% or more and less than 90%)
herbicidal effect on blackgrass (J) (blackgrass [3]; three weeks after application): 4 (Herbicidal rate of 70% or more and less than 90%)
herbicidal effect on barnyard grass (H) (barnyard grass [4]; three weeks after application): 5 (Herbicidal rate of 90% or more (almost completely withered))
herbicidal effect on false cleavers (Q) (false cleavers; three weeks after application): 5 (Herbicidal rate of 90% or more (almost completely withered))
R: persian speedwell, herbicidal effect grade (persian speedwell [5]): 5 (Herbicidal rate of 90% or more (almost completely withered))
herbicidal effect on rice flat sedge (E) (rice flat sedge): 4 (Herbicidal rate of 70% or more and less than 90%)
L: windgrass, herbicidal effect grade (windgrass [6]): 3 (Herbicidal rate of 40% or more and less than 70%)
I: wild oat, herbicidal effect grade (wild oat [7]): 1 (Herbicidal rate of 5% or more and less than 20%)
herbicidal effect on velvetleaf (M) (velvetleaf [8]; three weeks after application): 5 (Herbicidal rate of 90% or more (almost completely withered))
herbicidal effect on windgrass (L) (windgrass [9]; three weeks after application): 5 (Herbicidal rate of 90% or more (almost completely withered))
herbicidal effect on lambsquarters (O) (lambsquarters [10]; three weeks after application): 5 (Herbicidal rate of 90% or more (almost completely withered))
herbicidal effect on barnyard grass (H) (barnyard grass [25]): 4 (Herbicidal rate of 70% or more and less than 90%)
N: redroot pigweed, herbicidal effect grade (redroot pigweed [11]): 5 (Herbicidal rate of 90% or more (almost completely withered))
J: blackgrass, herbicidal effect grade (blackgrass [12]): 3 (Herbicidal rate of 40% or more and less than 70%)
herbicidal effect on Italian ryegrass (K) (Italian ryegrass [14]; three weeks after application): 4 (Herbicidal rate of 70% or more and less than 90%)
M: velvetleaf, herbicidal effect grade (velvetleaf [15]): 2 (Herbicidal rate of 20% or more and less than 40%)
O: lambsquarters, herbicidal effect grade (lambsquarters [16]): 5 (Herbicidal rate of 90% or more (almost completely withered))
herbicidal effect on Chinese sprangletop (D) (Chinese sprangletop): 3 (Herbicidal rate of 40% or more and less than 70%)
herbicidal effect on persian speedwell (R) (persian speedwell [17]; three weeks after application): 5 (Herbicidal rate of 90% or more (almost completely withered))
herbicidal effect on southern crabgrass (F) (southern crabgrass [18]; three weeks after application): 4 (Herbicidal rate of 70% or more and less than 90%)
F: southern crabgrass, herbicidal effect grade (southern crabgrass [19]): 0 (Herbicidal rate of 5% or less (almost no effect))
herbicidal effect on green foxtail (G) (green foxtail [20]; three weeks after application): 5 (Herbicidal rate of 90% or more (almost completely withered))
H: barnyard grass, herbicidal effect grade (barnyard grass [21]): 4 (Herbicidal rate of 70% or more and less than 90%)
P: chickweed, herbicidal effect grade (chickweed [22]): 5 (Herbicidal rate of 90% or more (almost completely withered))
G: green foxtail, herbicidal effect grade (green foxtail [23]): 4 (Herbicidal rate of 70% or more and less than 90%)

— patent US20230085307A1, “PYRIDAZINONE COMPOUND AND HERBICIDE” (NISSAN CHEMICAL CORPORATION, priority 2019, published 2023)
